Experimental data published in patent US8697692B2, “Pyrrolo [3,2-c] pyridine-4-one 2-indolinone protein kinase inhibitors” (Shanghai Hengrui Pharmaceutical Co., Ltd., priority 2006, dated 2014).

Experiments:
[1] = test system: A431 cell; assay: Cell Proliferation Inhibition EGFR Assay (SRB method); assay type: cell-based, homo sapient; settings: Homo sapiens, A-431; A431 cells, 72 hours exposure, Sulforhodamine B; read-out: IC50 (A431)
How it was run: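 A431 cells grown to ~85% confluence, then exposed 72 hours at 37° C to 6 to 7 serial concentrations of compound in DMEM/F12 + 10% FBS, final DMSO ≤0.5%. Growth measured by TCA fixation and sulforhodamine B staining; IC50 calculated from inhibition rates.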

[2] = target: T1, HER-2/ErbB2 kinase (Homo sapiens, UniProt P04626); assay: HER-2 Kinase Assay (ELISA); assay type: biochemical; settings: 20 μM ATP, 25° C. 60 minutes
T1 construct: purchased Invitrogen corporation #PV3366
T1 sequence (P04626 23-1255): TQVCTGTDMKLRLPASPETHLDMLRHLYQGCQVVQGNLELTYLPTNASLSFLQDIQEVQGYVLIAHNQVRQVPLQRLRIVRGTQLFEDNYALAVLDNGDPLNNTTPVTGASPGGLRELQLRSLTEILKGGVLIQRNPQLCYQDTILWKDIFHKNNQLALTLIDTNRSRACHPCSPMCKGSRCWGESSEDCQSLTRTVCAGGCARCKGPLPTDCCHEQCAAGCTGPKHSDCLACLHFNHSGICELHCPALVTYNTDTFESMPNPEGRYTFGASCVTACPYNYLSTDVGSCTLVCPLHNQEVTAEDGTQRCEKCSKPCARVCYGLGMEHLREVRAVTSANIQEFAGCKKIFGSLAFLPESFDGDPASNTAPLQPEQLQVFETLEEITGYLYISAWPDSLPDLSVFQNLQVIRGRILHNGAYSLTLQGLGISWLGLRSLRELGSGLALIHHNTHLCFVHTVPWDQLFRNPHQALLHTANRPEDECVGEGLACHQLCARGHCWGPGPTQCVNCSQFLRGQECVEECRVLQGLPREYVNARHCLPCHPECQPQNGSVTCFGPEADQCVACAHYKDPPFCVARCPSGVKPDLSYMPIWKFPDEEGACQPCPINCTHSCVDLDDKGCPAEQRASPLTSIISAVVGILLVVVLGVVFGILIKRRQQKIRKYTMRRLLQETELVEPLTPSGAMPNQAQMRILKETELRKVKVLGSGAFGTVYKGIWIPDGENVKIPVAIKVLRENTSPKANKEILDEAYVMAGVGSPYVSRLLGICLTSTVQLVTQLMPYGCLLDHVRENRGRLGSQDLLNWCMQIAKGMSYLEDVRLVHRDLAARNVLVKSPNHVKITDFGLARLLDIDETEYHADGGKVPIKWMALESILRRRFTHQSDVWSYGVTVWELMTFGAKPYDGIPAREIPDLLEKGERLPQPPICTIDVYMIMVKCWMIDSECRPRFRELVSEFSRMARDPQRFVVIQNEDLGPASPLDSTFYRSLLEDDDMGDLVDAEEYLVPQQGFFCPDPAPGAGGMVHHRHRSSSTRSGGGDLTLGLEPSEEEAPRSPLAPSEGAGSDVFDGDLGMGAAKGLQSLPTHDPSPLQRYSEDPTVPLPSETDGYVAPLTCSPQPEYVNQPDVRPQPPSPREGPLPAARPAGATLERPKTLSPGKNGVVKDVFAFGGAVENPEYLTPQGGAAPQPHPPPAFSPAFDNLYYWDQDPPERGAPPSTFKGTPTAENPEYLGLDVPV
Description: An enzyme linked immunosorbent assays (ELISA) was conducted to measure the kinase activity of HER-2 in vitro.
a. Wash Buffer (PBS-T Buffer): 1×PBS (137 mM NaCl; 2.7 mM KCl, 4.3 mM Na2HPO4, 1.4 mM KH2PO4, adjust the pH to 7.2) and 0.05% Tween-20.
b. 1% Bovine Serum Albumin (BSA, Calbiochem #136593) in PBS-T.
c. Stop Buffer: 50 mM EDTA, pH 8.0.
d. DELFIA® Europium-labeled Anti-mouse IgG (PerkinElmer Life Sciences #AD0124).
e. DELFIA® Enhancement Solution (PerkinElmer Life Sciences #1244-105).
f. DELFIA® Streptavidin coated, 96-well, yellow plate (PerkinElmer Life Sciences #AAAND-0005).
g. HER-2/ErbB2 kinase (Invitrogen corporation #PV3366).
h. 10 mM ATP solution (Cell signaling technology #9804).
i. FLT3 (Tyr589) Biotinylated Peptide (Cell signaling technology #1305).
j. Phospho-Tyrosine Mouse mAb (P-Tyr-100) (Cell signaling technology #9411).
k. HTScan™ Tyrosine Kinase Buffer (4×)
(Cell signaling technology #9805).
l. 1.25 M DTT (1000×) (Cell signaling technology).
The following protocol was used:
1. Dilute test compound with DMSO to the desired final assay concentration. Add 1 μl test compound for every assay, to the negative control.
2. Dilute 6 μM substrate peptide (Tyr589) 1:1 with dH2O, add 15 μl to every assay.
3. Immediately transfer HER-2 enzyme from −80° C. to ice. Allow enzyme to thaw on ice.
4. Take 4.5 μg HER-2 enzyme to the enzyme tube.
5. Add 10 μl of DTT (1.25 M) to 2.5 ml of 4×HTScan™ Tyrosine Kinase Buffer (240 mM HEPES pH 7.5, 20 mM MgCl2, 20 mM MnCl2, 12 μM Na3VO4) to make DTT/Kinase buffer.
6. Transfer 0.75 ml of DTT/Kinase buffer to each enzyme tube to make 4× reaction cocktail. Add 7.5 μl 4× reaction cocktail to every assay.
7. Add 4 μl ATP (10 mM) to 496 μl dH2O, take 7.5 μl for every assay. Final Assay Conditions for a 30 μl Reaction
Incubate reaction tube at 25° C. for 60 minutes. 9. Add 30 μl/assay stop buffer (50 mM EDTA, pH 8.0) to stop the reaction. 10. Transfer 25 μl of each reaction and 75 μl dH2O/well to a 96-well streptavidin coated plate and incubate, with shaking at room temperature for 60 minutes. 11. Wash three times with 200 μl/well PBS-T buffer. Pat plate on paper towel to remove excess liquid. 12. Dilute primary antibody, Phospho-Tyrosine mAb (P-Tyr-100), 1:1000 in PBS-T buffer with 1% BSA. Add 100 μl diluted primary antibody to each well. 13. Incubate, with shaking at room temperature for 60 minutes. 14. Wash as described above in step 11. 15. Dilute Europium labeled anti-mouse IgG 1:500 in PBS-T buffer with 1% BSA. Add 100 μl diluted antibody to each well. 16. Incubate, with shaking at room temperature for 30 minutes. 17. Wash five times with 200 μl/well PBS-T buffer. Pat plate on paper towel to remove excess liquid. 18. Add 100 μl/well DELFIA® Enhancement Solution. 19. Incubate, with shaking at room temperature for 5 minutes. 20. Detect 615 nm fluorescence emission with appropriate Time-Resolved Plate Reader.
Calculate the inhibition rate: IR (%)=100−100*(X−B)/(N−B)
X=the fluorescence value of the well contained test compound
The IC50 value can be derived from the IRs of compounds at different concentration gradients.

Row | IC50 [1] | IC50 [2] | SMILES
1 | 590 nM | 1090 nM | Cc1c(/C=C2\C(=O)Nc3cccc(C4CCNCC4)c32)[nH]c2c1C(=O)N(CCN1CCCC1)CC2 [Example 71, 3-Methyl-2-(2-oxo-4-piperidin-4-yl-1,2-dihydro-indol-3-ylidenemethyl)-5-(2-pyrrolidin-1-yl-ethyl)-1,5,6,7-tetrahydro-pyrrolo[3,2-c]pyridin-4-one]
2 | 13800 nM | 530 nM | Cc1c(/C=C2\C(=O)Nc3cccc(-c4cccc(Cl)c4F)c32)[nH]c2c1C(=O)N(CCN1CCCC1)CC2 [Example 68, 2-[4-(3-Chloro-2-fluoro-phenyl)-2-oxo-1,2-dihydro-indol-3-ylidenemethyl]-3-methyl-5-(2-pyrrolidin-1-yl-ethyl)-1,5,6,7-tetrahydro-pyrrolo[3,2-e]pyridin-4-one]
3 | 200 nM | 910 nM | Cc1c(/C=C2\C(=O)Nc3cccc(Br)c32)[nH]c2c1C(=O)N(CCN1CCCC1)CC2 [Example 69, 2-(4-Bromo-2-oxo-1,2-dihydro-indol-3-ylidenemethyl)-3-methyl-5-(2-pyrrolidin-1-yl-ethyl)-1,5,6,7-tetrahydro-pyrrolo[3,2-c]pyridin-4-one]
